Source: US9629856B2, “Compositions and methods for the treatment of skin diseases and disorders using antimicrobial peptide sequestering compounds” (Anteis SA, priority 2010, dated 2017)

System: Rosacea patients
Assay: Clinical study with rosacea patients
Settings: human, in vivo
Method: The following assessments or evaluations were performed before the treatment (Visit 1) and during the treatment period after about 2 weeks (Visit 2), about 4 weeks (Visit 3) and about 8 weeks (Visit 4): Tolerability including burning/stinging/tingling, pruritis, dryness, scaling/peeling and atrophy were evaluated of the face by the investigator (i.e., dermatologist) according to the following scale: 0=none, 1=mild, 2=moderate, 3=severe. Furthermore, any adverse events experienced by subject during the study period, whether related to the treatment or not, were recorded. Assessment of overall skin conditions of the face was performed by the investigator (i.e., dermatologist) according to the following scoring system: [table] Count of total number of inflammatory lesions (papules and pustules) on the face by the investigator (i.e., dermatologist). Evaluation of the severity of both redness/erythema and telangiectasia on the face by the investigator (i.e., dermatologist) according to the following scale: [table] […] Clinical photographs were taken at all visits utilizing standardized conditions for all subjects. […] In case possible, cross-polarized, parallel-polarized and visible light images were acquired along with both blue fluorescence and ultraviolet fluorescence images.

Hydroxypropyl Starch Phosphate [Structure XL]
immunotoxic effects: no evidence of immunotoxic effects
